Measurements reported in patent US20260022098A1, “BULLEYACONITINE A DERIVATIVE WITH ANALGESIC ACTIVITY, AND PREPARATION METHOD AND APPLICATION THEREOF” (priority 2023, published 2026).

Experiments:
Kunming mice [1] = assay: Acute toxicity / median lethal dose (LD50) determination, subcutaneous injection; format: in vivo; design: key to Acute toxicity: if death occurred, (+) represented as positive; if no death occurred, (−) represented as negative; conditions: mice administered 20 mg/kg subcutaneously, presence of death within 24 h
Method: (§1) The experimental animals were Kunming mice (male:female=1:1), weighed 22+2 g, which were provided by Chengdu dossy experimental animals Co., ltd., China. The mice were kept in the animal room of the School of Life Science and Engineering, Southwest Jiaotong University, where the animal room was set at a temperature of 23±2° C., a humidity of […] and a photoperiod of 16:8 h (L:D). Before the experiment, the mice were freely fed for 2-3 days with water and feed to adapt to the new environment. Then, the mice were treated by water and food fasting for 12 h. 10 animals were allocated to each group to ensure that there are at least 6 sets of valid data in each group. The animal experiments were carried out in strict accordance with the national regulations on the management of experimental animals.
(§2) The compounds prepared in the examples provided herein (test sample set) and bulleyaconitine A (positive control set) were all dissolved with 0.1 mol/L HCl according to a molar ratio of 1:1, and then diluted with physiological saline to a concentration to be determined. Blank control was physiological saline containing 0.1 mol/L HCl. The animals in the control groups were subjected to the same treatment as those in experimental groups except that samples to be test were replaced with physiological saline.
(2) Median Lethal Dose (LD50) Determination
The sample to be tested was dissolved with 0.1 mol/L HCl according to the amount of the substance ratio of 1:1, and diluted with physiological saline according to the required concentration. 10 mice in each group were randomly selected, half of which were male and half of which were female, and were placed in independent cages. Each mouse was injected subcutaneously with different sample solutions to be tested according to a dose of 0.1 mL/10 g body weight. In the preliminary toxicity experiment, the measured concentration was 20 mg/kg, and then based on the survival rate of the experimental animals in the preliminary experiment, the sample to be tested was set to at least 5 groups with different concentration dose according to the proportional series. The survival rate of mice within 24 h was recorded. The obtained dose-survival rate data was input into the SPSS software (version 17.2), and the LD50 of the sample was calculated according to the Probit regression method.

Kunming mice [2] = assay: Analgesic activity by acetic acid-induced writhing method (writhing inhibition rate, ED50); format: in vivo; conditions: Mus musculus, sc, read-out: Analgesia rate (%) ± SEM
Method: as §1, §2
(1) Determination of Analgesic Activity Through an Acetic Acid-Induced Writhing Method
10 mice were randomly selected, male:female=1:1, were placed in independent cages. Each mouse was injected subcutaneously with the sample solution mentioned above at a dose of 0.1 mL/10 g body weight. After 15 min, a 0.7% acetic acid solution was intraperitoneally injected. A number of writhing reactions in each mouse within 15 minutes was recorded. The group that the mice were injected with physiological saline subcutaneously was the blank group; the group that the mice were injected with the sample to be tested was the experimental group; and the group that the mice were injected with bulleyaconitine A was the positive group. The analgesic activity was represented by a percentage of the reduced number of writhing compared to the blank group (writhing inhibition rate), which were specifically as follows: writhing inhibition rate (analgesic activity)=(average number of writhing times in the blank group-average number of writhing times in the experimental group)/average number of writhing times in the blank group×100%.
Median Effective Dose (ED50) Determination
The sample to be tested was dissolved with 0.1 mol/L HCl according to the amount of the substance ratio of 1:1, and diluted with physiological saline according to the proportional series to obtain at least 5 groups with different dose concentrations. The writhing inhibition rate of each dose group was tested according to the acetic acid-induced writhing method mentioned above. The obtained dose-writhing inhibition data was entered into the statistical product and service solutions (SPSS) software (version 17.2), and the ED50 of the sample to be tested was calculated through the Probit regression method.

SMILES | Acute toxicity (Kunming mice [1]) | inhibition in vivo at 0.05 mg/kg (Kunming mice [2]) [%]
CCN1C[C@]2(COC)CC[C@H](OC)[C@@]34C5C[C@]6(OC(=O)c7ccc([N+](=O)[O-])cc7)[C@@H](OC)C[C@@](OC(C)=O)(C5[C@H]6OC(=O)c5ccc(OC)cc5)C([C@H](OC)C23)[C@@H]14 (stereo partly drawn) [Compound 40] | − | 31.9 ± 1.8
CCO[C@]12C[C@H](OC)[C@@]3(OC(C)=O)CC(C1[C@H]3OC(C)=O)[C@]13C4[C@@H](OC)C2[C@H]1N(CC)C[C@]4(COC)CC[C@@H]3OC (stereo partly drawn) [Compound 41] | − | 18.5 ± 2.1
CCO[C@]12C[C@H](OC)[C@@]3(OC(C)=O)CC(C1[C@H]3OC(=O)c1ccc(OC)cc1)[C@]13C4[C@@H](OC)C2[C@H]1N(CC)C[C@]4(COC)CC[C@@H]3OC (stereo partly drawn) [Compound 42] | − | 23 ± 1.7
CCN1C[C@]2(COC)CC[C@H](OC)[C@@]34C5C[C@]6(OC(C)=O)[C@@H](OC)C[C@@](OC(C)=O)(C5[C@H]6OC(=O)c5ccc(OC)cc5)C([C@H](OC)C23)[C@@H]14 (stereo partly drawn) [Compound 43] | − | 4.92 ± 1.5
CCN1C[C@]2(COC)CC[C@H](OC)[C@@]34C5C[C@]6(OC(C)=O)[C@@H](OC)C[C@@](OC)(C5[C@H]6OC(C)=O)C([C@H](OC)C23)[C@@H]14 (stereo partly drawn) [Compound 44] | − | 5.82 ± 3.4
CCN1C[C@]2(COC)CC[C@H](OC)[C@@]34C5C[C@]6(OC(C)=O)[C@@H](OC)C[C@@](OC)(C5[C@H]6OC(=O)c5ccc(OC)cc5)C([C@H](OC)C23)[C@@H]14 (stereo partly drawn) [Compound 45] | − | 21.6 ± 1.3
CCO[C@]12C[C@H](OC)[C@@]3(OC(=O)c4ccc(C(F)(F)F)cc4)CC(C1[C@H]3OC(=O)c1ccc(C(F)(F)F)cc1)[C@]13C4[C@@H](OC)C2[C@H]1N(CC)C[C@]4(COC)CC[C@@H]3OC (stereo partly drawn) [Compound 46] | − | 16.7 ± 2.6
CCO[C@]12C[C@H](OC)[C@@]3(OC(=O)c4ccc(C(F)(F)F)cc4)CC(C1[C@H]3OC(=O)c1ccc(OC)cc1)[C@]13C4[C@@H](OC)C2[C@H]1N(CC)C[C@]4(COC)CC[C@@H]3OC (stereo partly drawn) [Compound 47] | − | 33.8 ± 2.2
CCN1C[C@]2(COC)CC[C@H](OC)[C@@]34C5C[C@]6(OC(=O)c7ccc(C(F)(F)F)cc7)[C@@H](OC)C[C@@](OC(C)=O)(C5[C@H]6OC(=O)c5ccc(OC)cc5)C([C@H](OC)C23)[C@@H]14 (stereo partly drawn) [Compound 48] | − | 17.5 ± 3
CCO[C@]12C[C@H](OC)[C@@]3(OC(=O)c4ccncc4)CC(C1[C@H]3OC(=O)c1ccncc1)[C@]13C4[C@@H](OC)C2[C@H]1N(CC)C[C@]4(COC)CC[C@@H]3OC (stereo partly drawn) [Compound 49] | − | 13.7 ± 1
CCO[C@]12C[C@H](OC)[C@@]3(OC(=O)c4ccncc4)CC(C1[C@H]3OC(=O)c1ccc(OC)cc1)[C@]13C4[C@@H](OC)C2[C@H]1N(CC)C[C@]4(COC)CC[C@@H]3OC (stereo partly drawn) [Compound 50] | − | 33.2 ± 1.4
CCN1C[C@]2(COC)CC[C@H](OC)[C@@]34C5C[C@]6(OC(=O)c7ccncc7)[C@@H](OC)C[C@@](OC(C)=O)(C5[C@H]6OC(=O)c5ccc(OC)cc5)C([C@H](OC)C23)[C@@H]14 (stereo partly drawn) [Compound 51] | − | 32.6 ± 1.7
CCO[C@]12C[C@H](OC)[C@@]3(OC(=O)c4ccccc4)CC(C1[C@H]3OC(=O)c1ccc(OC)cc1)[C@]13C4[C@@H](OC)C2[C@H]1N(CC)C[C@]4(COC)CC[C@@H]3OC (stereo partly drawn) [Compound 53] | − | 0
CCN1C[C@]2(COC)CC[C@H](OC)[C@@]34C5C[C@]6(OC(=O)c7ccccc7)[C@@H](OC)C[C@@](OC(C)=O)(C5[C@H]6OC(=O)c5ccc(OC)cc5)C([C@H](OC)C23)[C@@H]14 (stereo partly drawn) [Compound 54] | − | 0
CCN1C[C@]2(COC)CC[C@H](OC)[C@@]34C5C[C@]6(OC(=O)c7ccccc7)[C@@H](OC)C[C@@](OC)(C5[C@H]6OC(=O)c5ccccc5)C([C@H](OC)C23)[C@@H]14 (stereo partly drawn) [Compound 55] | − | 11.7 ± 1.6
CCO[C@]12C[C@H](OC)[C@@]3(OC(=O)c4ccc(C)cc4)CC(C1[C@H]3OC(=O)c1ccc(C)cc1)[C@]13C4[C@@H](OC)C2[C@H]1N(CC)C[C@]4(COC)CC[C@@H]3OC (stereo partly drawn) [Compound 56] | − | 11.4 ± 2
CCO[C@]12C[C@H](OC)[C@@]3(OC(=O)c4ccc(C)cc4)CC(C1[C@H]3OC(=O)c1ccc(OC)cc1)[C@]13C4[C@@H](OC)C2[C@H]1N(CC)C[C@]4(COC)CC[C@@H]3OC (stereo partly drawn) [Compound 57] | − | 5.39 ± 2
CCN1C[C@]2(COC)CC[C@H](OC)[C@@]34C5C[C@]6(OC(=O)c7ccc(C)cc7)[C@@H](OC)C[C@@](OC(C)=O)(C5[C@H]6OC(=O)c5ccc(OC)cc5)C([C@H](OC)C23)[C@@H]14 (stereo partly drawn) [Compound 58] | − | 28.8 ± 1.8
CCN1C[C@]2(COC)CC[C@H](OC)[C@@]34C5C[C@]6(OC(=O)c7ccc(F)cc7)[C@@H](OC)C[C@@](OC(C)=O)(C5[C@H]6OC(=O)c5ccc(OC)cc5)C([C@H](OC)C23)[C@@H]14 (stereo partly drawn) [Compound 61] | − | 34 ± 1.9
CCO[C@]12C[C@H](OC)[C@@]3(OC(=O)c4cccc(C)c4)CC(C1[C@H]3OC(=O)c1cccc(C)c1)[C@]13C4[C@@H](OC)C2[C@H]1N(CC)C[C@]4(COC)CC[C@@H]3OC (stereo partly drawn) [Compound 62] | − | 15 ± 2.4
CCO[C@]12C[C@H](OC)[C@@]3(OC(=O)c4ccc(CC)cc4)CC(C1[C@H]3OC(=O)c1ccc(CC)cc1)[C@]13C4[C@@H](OC)C2[C@H]1N(CC)C[C@]4(COC)CC[C@@H]3OC (stereo partly drawn) [Compound 63] | − | 0
CCO[C@]12C[C@H](OC)[C@@]3(OC(=O)c4ccc(Br)cc4)CC(C1[C@H]3OC(=O)c1ccc(Br)cc1)[C@]13C4[C@@H](OC)C2[C@H]1N(CC)C[C@]4(COC)CC[C@@H]3OC (stereo partly drawn) [Compound 64] | − | 22.4 ± 1.4
CCO[C@]12C[C@H](OC)[C@@]3(OC(=O)c4ccc(Cl)cc4)CC(C1[C@H]3OC(=O)c1ccc(Cl)cc1)[C@]13C4[C@@H](OC)C2[C@H]1N(CC)C[C@]4(COC)CC[C@@H]3OC (stereo partly drawn) [Compound 65] | − | 32.3 ± 1.7
CCO[C@]12C[C@H](OC)[C@@]3(OC(=O)c4ccccc4OC)CC(C1[C@H]3OC(=O)c1ccccc1OC)[C@]13C4[C@@H](OC)C2[C@H]1N(CC)C[C@]4(COC)CC[C@@H]3OC (stereo partly drawn) [Compound 66] | − | 22.9 ± 2.4
